The text below walks through data of ChEMBL document CHEMBL1130479, “7-O-acylpaclitaxel analogues: potential probes to map the paclitaxel binding site” (1997).

One assay deals with B16. The assay is described as follows: The cytotoxic activity was measured against B16 melanoma cells, activity expressed as ED50 of compound/ ED50 of paclitaxel. It is filed as functional, Mus musculus.
Assay [1] is described as follows: The activity to inhibit microtubule assembly, activity expressed as ED50 of compound/ ED50 of paclitaxel. The class given is functional.

Some results are limits rather than exact numbers.

For the compound `CC(=O)O[C@H]1C(=O)[C@@]2(C)[C@H]([C@H](OC(=O)c3ccccc3)[C@]3(O)C[C@H](OC(=O)[C@H](O)[C@@H](NC(=O)c4ccccc4)c4ccccc4)C(C)=C1C3(C)C)[C@]1(OC(C)=O)CO[C@@H]1C[C@@H]2O` [PACLITAXEL], in the assay on B16, the Cytotoxicity was determined as 1. The Activity in assay [1] was 1.

The compound `CC(=O)O[C@H]1C(=O)[C@]2(C)[C@@H](OC(=O)c3ccccc3)C[C@H]3OC[C@@]3(OC(C)=O)[C@H]2[C@H](OC(=O)c2ccccc2)[C@]2(O)C[C@H](OC(=O)[C@H](O)[C@@H](NC(=O)c3ccccc3)c3ccccc3)C(C)=C1C2(C)C` [PACLITAXEL C7 BENZOIC ACID ESTER] registered a Cytotoxicity with B16 of 9.7. Moreover, the Activity in assay [1] is 4.1.

In assay [1], `CC(=O)O[C@H]1C(=O)[C@]2(C)[C@@H](OC(=O)c3cc(N=[N+]=[N-])cc([N+](=O)[O-])c3)C[C@H]3OC[C@@]3(OC(C)=O)[C@H]2[C@H](OC(=O)c2ccccc2)[C@]2(O)C[C@H](OC(=O)[C@H](O)[C@@H](NC(=O)c3ccccc3)c3ccccc3)C(C)=C1C2(C)C` showed an Activity of over 24.

For `CC(=O)O[C@H]1C(=O)[C@]2(C)[C@@H](OC(=O)c3cccc(N)c3)C[C@H]3OC[C@@]3(OC(C)=O)[C@H]2[C@H](OC(=O)c2ccccc2)[C@]2(O)C[C@H](OC(=O)[C@H](O)[C@@H](NC(=O)c3ccccc3)c3ccccc3)C(C)=C1C2(C)C`, the Cytotoxicity in the assay with B16 was 7.1. The compound further showed an Activity in assay [1] of 1.5.

Regarding `CC(=O)O[C@H]1C(=O)[C@]2(C)[C@@H](OC(=O)CI)C[C@H]3OC[C@@]3(OC(C)=O)[C@H]2[C@H](OC(=O)c2ccccc2)[C@]2(O)C[C@H](OC(=O)[C@H](O)[C@@H](NC(=O)c3ccccc3)c3ccccc3)C(C)=C1C2(C)C`, in the assay with B16, the Cytotoxicity is listed as 3.7. Also, the Activity in assay [1] turned out to be 3.3.

In assay [1], `CC(=O)O[C@H]1C(=O)[C@]2(C)[C@@H](OC(=O)c3cccc(N=[N+]=[N-])c3)C[C@H]3OC[C@@]3(OC(C)=O)[C@H]2[C@H](OC(=O)c2ccccc2)[C@]2(O)C[C@H](OC(=O)[C@H](O)[C@@H](NC(=O)c3ccccc3)c3ccccc3)C(C)=C1C2(C)C` had an Activity of over 24.

As for `CC(=O)O[C@H]1C(=O)[C@]2(C)[C@@H](OC(=O)c3ccc(N)cc3)C[C@H]3OC[C@@]3(OC(C)=O)[C@H]2[C@H](OC(=O)c2ccccc2)[C@]2(O)C[C@H](OC(=O)[C@H](O)[C@@H](NC(=O)c3ccccc3)c3ccccc3)C(C)=C1C2(C)C`, the Cytotoxicity in the assay on B16 amounted to 17. This compound also registered an Activity in assay [1] of 1.7.

For the compound `CC(=O)O[C@H]1C(=O)[C@]2(C)[C@@H](OC(=O)c3cccc(N(C)C)c3)C[C@H]3OC[C@@]3(OC(C)=O)[C@H]2[C@H](OC(=O)c2ccccc2)[C@]2(O)C[C@H](OC(=O)[C@H](O)[C@@H](NC(=O)c3ccccc3)c3ccccc3)C(C)=C1C2(C)C`, the Activity in assay [1] was 22.

`CC(=O)O[C@H]1C(=O)[C@]2(C)[C@@H](OC(=O)c3ccc(N=[N+]=[N-])cc3)C[C@H]3OC[C@@]3(OC(C)=O)[C@H]2[C@H](OC(=O)c2ccccc2)[C@]2(O)C[C@H](OC(=O)[C@H](O)[C@@H](NC(=O)c3ccccc3)c3ccccc3)C(C)=C1C2(C)C` displayed a Cytotoxicity in the assay with B16 of 30. Further, the Activity in assay [1] is 21.

`CC(=O)O[C@H]1C(=O)[C@]2(C)[C@@H](OC(=O)c3cc(N)cc([N+](=O)[O-])c3)C[C@H]3OC[C@@]3(OC(C)=O)[C@H]2[C@H](OC(=O)c2ccccc2)[C@]2(O)C[C@H](OC(=O)[C@H](O)[C@@H](NC(=O)c3ccccc3)c3ccccc3)C(C)=C1C2(C)C` gave a Cytotoxicity in the assay on B16 of 16. Moreover, the Activity in assay [1] stood at 4.4.

Regarding `CC(=O)O[C@H]1C(=O)[C@]2(C)[C@@H](OC(=O)CCl)C[C@H]3OC[C@@]3(OC(C)=O)[C@H]2[C@H](OC(=O)c2ccccc2)[C@]2(O)C[C@H](OC(=O)[C@H](O)[C@@H](NC(=O)c3ccccc3)c3ccccc3)C(C)=C1C2(C)C`, the Cytotoxicity in the assay with B16 is 0.92. Besides, in assay [1], the Activity turned out to be 1.6.

For `CC(=O)O[C@H]1C(=O)[C@@]2(C)C([C@H](OC(=O)c3ccccc3)[C@]3(O)C[C@H](OC(=O)[C@H](O)[C@@H](NC(=O)c4ccccc4)c4ccccc4)C(C)=C1C3(C)C)[C@]1(OC(C)=O)CO[C@@H]1C[C@@H]2OC(=O)c1cccc(C(C)C)c1` (stereo not given in full), the Activity in assay [1] was over 32.
